Results taken from patent US20240034743A9, “TRICYCLIC COMPOUNDS AS EGFR INHIBITORS” (QILU PHARMACEUTICAL CO., LTD., priority 2020, published 2024).
pIC50: −log10 of the molar value. Where two headings read alike, the source gives them in different places.

What was measured:
[1] = tested on: A431 cells (EGFR WT); experiment: A431 cell proliferation inhibition assay (CellTiter-Glo); type: cell-based; settings: for pIC50: cell proliferation, 72 h, CellTiter-Glo, read-out: A431 EGFR WT IC50; for IC50: A-431, 72 h, read-out: A431 EGFR WT IC50(nM)
How it was run: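 Seeded cells grown 24 h, then exposed 72 h (37° C, 5% CO2) to graded compound dilutions at 0.1% DMSO final. Viability read by CellTiter-Glo luminescence after 30 min at room temperature; IC50 fitted from the dose curve.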

[2] = molecular target: EGFR L858R/T790M/C797S (Homo sapiens (Human), UniProt P00533, C797S/L858R/T790M); experiment: In vitro enzymatic TR-FRET (HTRF KinEASE-TK) kinase assay, EGFR L858R/T790M/C797S; type: biochemical; settings: kinase activity
Protocol: (I) In Vitro Enzymatic Experiment for EGFR WT and EGFR L858R/T790M/C797S
In the assay, the inhibition effect of the compound on the kinase activity of EGFR WT (wild type EGFR) and EGFR L858R/T790M/C797S was tested by adopting a time-resolved fluorescence resonance energy transfer (TR-FRET) method, and half maximal inhibitory concentration IC50 of the compound on the kinase activity of EGFR was obtained.
EGFR recombinase and EGFR L858R/T790M/C797S recombinase, purchased from Signalchem.
HTRF KinEASE-TK kit, purchased from Cisbio.
DTT, MnCl2, and MgCl2, purchased from Sigma.
ATP, purchased from Promega.
Brigatinib, purchased from Selleck.
1) 1× working solution was prepared: 5 mM MgCl2; 1 mM DTT; 1 mM MnCl2 and 1× kinase buffer (in kit).
2) […] of gradiently-diluted compound was transferred to a 384-well plate using Echo 550 (Labcyte).
3) 5 μL of 2× EGFR WT or EGFR L858R/T790M/C797S recombinase solution was added to the 384-well plate, and the plate was incubated at room temperature for 10 min.
4) 5 μL of 2× TK-substrate-biotin substrate solution (containing ATP) was added to the 384-well plate, and the plate was incubated at room temperature for 40 min.
5) 5 μL of assay solution containing Sa-XL 665 HTRF and 5 μL of TK-antibody-Cryptatewas were added to the plate, and the plate was incubated at room temperature for 1 h.
6) The fluorescence signal values at 615 nm and 665 nm were measured for each well using an Envision microplate reader (PerkinElmer).
7) The ratio of fluorescence signal values at 665 nm and 615 nm was calculated for each well.
8) Data analysis was performed using GraphPad Prism software to give the IC50 for compounds.

[3] = molecular target: EGFR WT (wild type EGFR) (Homo sapiens (Human), UniProt P00533); experiment: In vitro enzymatic TR-FRET (HTRF KinEASE-TK) kinase assay, EGFR WT; type: biochemical; settings: kinase activity, TR-FRET; read-out: EGFR (WT) IC50
How it was run: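 Recombinant enzyme preincubated with compound 10 min at room temperature in kinase buffer with 5 mM MgCl2, 1 mM MnCl2, 1 mM DTT. Biotinylated TK substrate plus ATP then added for 40 min. HTRF detection (Sa-XL665, Cryptate antibody) for 1 h; IC50 from 665/615 nm ratio.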

[4] = tested on: Ba/F3_Del19/T790M/C797S cells; experiment: Ba/F3_Del19/T790M/C797S cell proliferation inhibition assay (CellTiter-Glo); type: cell-based; settings: for pIC50: cell proliferation, 72 h, CellTiter-Glo, read-out: Ba/F3 (Del19/T790M/C797S) IC50; for IC50: BaF3, 72 h, read-out: Ba/F3 (Del19/T790M/C797S) IC50(nM)
How it was run: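 Ba/F3 cells carrying EGFR Del19/T790M/C797S were seeded at 700 cells/well and exposed to serially diluted compound (0.1% DMSO final) for 72 h at 37° C. Viability was read by CellTiter-Glo luminescence to give IC50.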

[5] = tested on: Ba/F3_L858R/T790M/C797S cells; experiment: Ba/F3_L858R/T790M/C797S cell proliferation inhibition assay (CellTiter-Glo); type: cell-based; settings: for pIC50: cell proliferation, 72 h, CellTiter-Glo, read-out: Ba/F3 (L858R/T790M/C797S) IC50; for IC50: BaF3, 72 h, read-out: Ba/F3 (L858R/T790M/C797S) IC50(nM)
How it was run: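 Ba/F3 cells engineered to carry EGFR L858R/T790M/C797S, seeded at 700 cells/well, exposed to serially diluted compound (0.1% DMSO final) for 72 h at 37 °C, 5% CO2. Viability read by CellTiter-Glo luminescence after 30 min at room temperature; IC50 from dose-response fit.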

EGFR WT (wild type EGFR), sequence (P00533 25-1210): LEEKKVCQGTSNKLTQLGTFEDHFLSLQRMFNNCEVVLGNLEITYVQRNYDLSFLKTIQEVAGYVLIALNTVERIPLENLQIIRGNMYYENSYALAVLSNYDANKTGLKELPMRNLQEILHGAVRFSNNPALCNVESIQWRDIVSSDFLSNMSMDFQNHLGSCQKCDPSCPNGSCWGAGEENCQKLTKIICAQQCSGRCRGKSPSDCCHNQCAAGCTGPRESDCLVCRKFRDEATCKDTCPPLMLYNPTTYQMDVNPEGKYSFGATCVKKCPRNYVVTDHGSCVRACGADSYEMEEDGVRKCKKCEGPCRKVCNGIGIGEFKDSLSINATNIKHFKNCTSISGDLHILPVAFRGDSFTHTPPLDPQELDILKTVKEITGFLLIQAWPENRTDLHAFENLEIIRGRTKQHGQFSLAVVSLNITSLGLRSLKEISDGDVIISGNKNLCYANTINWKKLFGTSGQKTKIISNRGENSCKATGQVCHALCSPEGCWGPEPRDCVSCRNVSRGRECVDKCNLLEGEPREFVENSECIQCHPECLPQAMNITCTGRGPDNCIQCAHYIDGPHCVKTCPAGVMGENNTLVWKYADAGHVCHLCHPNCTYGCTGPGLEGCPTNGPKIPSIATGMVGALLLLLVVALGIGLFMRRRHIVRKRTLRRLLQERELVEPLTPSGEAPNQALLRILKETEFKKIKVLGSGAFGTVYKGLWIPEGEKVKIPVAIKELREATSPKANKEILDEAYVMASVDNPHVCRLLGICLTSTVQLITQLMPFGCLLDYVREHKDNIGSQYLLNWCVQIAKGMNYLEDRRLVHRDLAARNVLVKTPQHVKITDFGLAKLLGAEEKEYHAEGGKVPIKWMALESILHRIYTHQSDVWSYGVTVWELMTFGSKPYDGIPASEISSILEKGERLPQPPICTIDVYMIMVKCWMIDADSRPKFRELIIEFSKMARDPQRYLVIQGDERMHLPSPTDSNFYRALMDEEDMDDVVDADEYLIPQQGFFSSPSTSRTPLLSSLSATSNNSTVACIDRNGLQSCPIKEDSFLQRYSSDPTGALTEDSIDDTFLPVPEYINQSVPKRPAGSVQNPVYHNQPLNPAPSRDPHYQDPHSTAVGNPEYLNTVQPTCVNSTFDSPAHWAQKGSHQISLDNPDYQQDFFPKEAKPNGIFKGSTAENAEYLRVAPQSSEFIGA
EGFR L858R/T790M/C797S, sequence (P00533 25-1210 T790M/C797S/L858R): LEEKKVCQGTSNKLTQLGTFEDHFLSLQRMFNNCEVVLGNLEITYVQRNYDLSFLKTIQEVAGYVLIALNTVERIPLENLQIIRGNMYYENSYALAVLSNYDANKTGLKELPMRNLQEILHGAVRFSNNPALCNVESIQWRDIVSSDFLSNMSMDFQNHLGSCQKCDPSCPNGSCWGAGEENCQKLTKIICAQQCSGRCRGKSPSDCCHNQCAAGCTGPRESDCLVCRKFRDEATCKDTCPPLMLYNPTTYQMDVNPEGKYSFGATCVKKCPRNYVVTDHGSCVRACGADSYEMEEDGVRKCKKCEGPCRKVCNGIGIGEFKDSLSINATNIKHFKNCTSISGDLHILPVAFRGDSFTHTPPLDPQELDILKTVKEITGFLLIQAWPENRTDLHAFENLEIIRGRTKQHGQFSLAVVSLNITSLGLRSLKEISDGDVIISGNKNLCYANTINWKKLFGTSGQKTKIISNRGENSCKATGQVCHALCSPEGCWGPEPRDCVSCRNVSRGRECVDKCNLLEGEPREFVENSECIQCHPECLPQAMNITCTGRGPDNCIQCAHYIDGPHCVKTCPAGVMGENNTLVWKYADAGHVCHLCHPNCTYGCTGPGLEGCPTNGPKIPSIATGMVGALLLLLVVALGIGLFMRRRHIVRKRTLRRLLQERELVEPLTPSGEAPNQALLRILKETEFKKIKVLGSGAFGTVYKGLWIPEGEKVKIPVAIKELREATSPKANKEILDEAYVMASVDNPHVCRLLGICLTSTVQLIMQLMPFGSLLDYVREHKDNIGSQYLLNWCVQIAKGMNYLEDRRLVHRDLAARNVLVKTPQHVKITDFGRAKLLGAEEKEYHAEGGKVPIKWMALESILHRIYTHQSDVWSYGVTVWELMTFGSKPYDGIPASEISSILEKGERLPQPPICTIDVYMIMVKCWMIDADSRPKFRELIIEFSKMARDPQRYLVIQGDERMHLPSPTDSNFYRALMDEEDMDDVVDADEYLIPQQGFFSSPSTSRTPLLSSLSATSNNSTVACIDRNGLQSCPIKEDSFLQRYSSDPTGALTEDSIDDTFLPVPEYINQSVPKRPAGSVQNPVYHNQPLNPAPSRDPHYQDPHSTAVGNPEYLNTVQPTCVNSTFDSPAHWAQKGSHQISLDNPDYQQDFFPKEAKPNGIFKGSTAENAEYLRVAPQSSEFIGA

Structure (SMILES)	pIC50 [1]	pIC50 [2]	pIC50 [3]	pIC50 [4]	pIC50 [5]	pIC50 ([1]; Homo sapiens, A-431)	pIC50 ([4]; Mus musculus, BaF3)	pIC50 ([5]; Mus musculus, BaF3)	IC50 ([1]; Homo sapiens) [nM]	IC50 ([4]; Mus musculus) [nM]	IC50 ([5]; Mus musculus) [nM]
CCN(c1c(Nc2nc(Nc3cc4c(cc3OC)N(C(C)C)CCc3c-4cnn3C)ncc2Br)ccc2nccnc12)S(C)(=O)=O [Compound 134]	–	8.00 to 9.00	7.30 to 8.00	–	–	–	–	–	100 to 1000	< 10	10 to 50
COc1cc2c(cc1Nc1ncc(C3CC3)c(Nc3ccccc3P(C)(C)=O)n1)-c1cnn(C)c1CCN2C [Compound 30]	–	> 9.00	7.30 to 8.00	–	–	6.00 to 7.00	7.30 to 8.00	7.00 to 7.30	–	–	–
COc1cc2c(cc1Nc1nccc(Nc3ccccc3P(C)(C)=O)n1)-c1cnn(C)c1CCN2C [Compound 22]	–	8.00 to 9.00	7.30 to 8.00	–	–	< 6.00	7.30 to 8.00	6.00 to 7.00	–	–	–
COc1nc2c(cc1Nc1ncc(Br)c(Nc3ccc4nccnc4c3NS(C)(=O)=O)n1)-c1cnn(C)c1CCN2C [Compound 107]	–	> 9.00	> 9.00	–	–	6.00 to 7.00	> 8.00	> 8.00	–	–	–
COc1cc2c(cc1Nc1ncc(C)c(Nc3ccccc3P(C)(C)=O)n1)-c1cnn(C)c1CCN2C#N [Compound 23]	–	8.00 to 9.00	7.30 to 8.00	–	–	6.00 to 7.00	7.30 to 8.00	7.00 to 7.30	–	–	–
COc1cc2c(cc1Nc1ncc(Br)c(Nc3ccc4nccnc4c3NS(C)(=O)=O)n1)-c1cnn(C)c1CCN2C1CCC1 [Compound 135]	–	8.00 to 9.00	8.00 to 9.00	–	–	–	–	–	100 to 1000	< 10	< 10
COc1cc2c(cc1Nc1ncc(Br)c(Nc3ccc4nccnc4c3P(C)(C)=O)n1)-c1cnn(C)c1CCN2C1CN(C)C1 [Compound 10]	–	> 9.00	> 9.00	–	–	7.30 to 8.00	> 8.00	> 8.00	–	–	–
COc1cc2c(cc1Nc1ncc(Br)c(Nc3ccccc3P(C)(C)=O)n1)-c1cnn(C)c1CCC2N(C)C (centres unmarked) [Compound 78]	–	> 9.00	8.00 to 9.00	–	–	6.00 to 7.00	> 8.00	7.30 to 8.00	–	–	–
COc1cc2c(cc1Nc1ncc(Br)c(Nc3ccccc3NS(C)(=O)=O)n1)-c1cnn(C)c1CCN2 [Compound 121]	–	8.00 to 9.00	6.00 to 7.00	–	–	–	–	–	100 to 1000	< 10	< 10
COc1cc2c(cc1Nc1ncc(Br)c(Nc3ccc4nccnc4c3NS(C)(=O)=O)n1)-c1cnn(C)c1CCN2C1CCOCC1 [Compound 130]	–	> 9.00	8.00 to 9.00	–	–	6.00 to 7.00	> 8.00	> 8.00	–	–	–
COc1ccc(CN2Cc3cc(OC)c(Nc4ncc(Br)c(Nc5ccc6nccnc6c5P(C)(C)=O)n4)cc3-c3cnn(C)c3C2)c(OC)c1 [Compound 57]	–	8.00 to 9.00	7.00 to 7.30	–	–	6.00 to 7.00	7.30 to 8.00	7.00 to 7.30	–	–	–
COc1cc2c(cc1Nc1ncc(Br)c(Nc3ccccc3N(C(C)C)S(C)(=O)=O)n1)-c1cnn(C)c1CCN2 [Compound 122]	–	8.00 to 9.00	7.00 to 7.30	–	–	–	–	–	100 to 1000	10 to 50	10 to 50

Second part, led by results:

pIC50 [1]	pIC50 [2]	pIC50 [3]	pIC50 [4]	pIC50 [5]	pIC50 ([1]; Homo sapiens, A-431)	pIC50 ([4]; Mus musculus, BaF3)	pIC50 ([5]; Mus musculus, BaF3)	Structure (SMILES)	IC50 ([1]; Homo sapiens) [nM]	IC50 ([4]; Mus musculus) [nM]	IC50 ([5]; Mus musculus) [nM]
6.00 to 7.00	> 9.00	8.00 to 9.00	> 8.00	7.30 to 8.00	–	–	–	COc1cc2c(cc1Nc1ncc(Br)c(Nc3ccccc3P(C)(C)=O)n1)-c1cnn(C)c1CCN2[C@H]1CCN(C)C[C@@H]1F (single isomer, unassigned) [Compound 66B]	–	–	–
–	> 9.00	8.00 to 9.00	–	–	6.00 to 7.00	> 8.00	7.30 to 8.00	COc1cc2c(cc1Nc1ncc(Br)c(Nc3cccnc3P(C)(C)=O)n1)-c1cnn(C)c1CCN2C(C)C [Compound 83]	–	–	–
–	> 9.00	> 9.00	–	–	6.00 to 7.00	> 8.00	7.30 to 8.00	COc1cc2c(cc1Nc1ncc(Br)c(Nc3ccc4nccnc4c3NS(C)(=O)=O)n1)-c1cnn(C)c1CCN2C [Compound 35]	–	–	–
–	8.00 to 9.00	8.00 to 9.00	–	–	6.00 to 7.00	7.30 to 8.00	7.00 to 7.30	COc1cc2c(cc1Nc1ncc(F)c(Nc3ccccc3P(C)(C)=O)n1)-c1cnn(C)c1CCN2C [Compound 17]	–	–	–
–	8.00 to 9.00	7.00 to 7.30	–	–	6.00 to 7.00	7.30 to 8.00	7.30 to 8.00	COc1cc2c(cc1Nc1ncc(Br)c(Nc3ccccc3P(C)(C)=O)n1)-c1cccnc1CCN2C [Compound 99]	–	–	–
6.00 to 7.00	> 9.00	8.00 to 9.00	> 8.00	7.30 to 8.00	–	–	–	COc1cc2c(cc1Nc1ncc(Br)c(Nc3ccccc3P(C)(C)=O)n1)-c1cnn(C3COC3)c1CCN2C(C)C [Compound 77A]	–	–	–
–	8.00 to 9.00	7.30 to 8.00	–	–	6.00 to 7.00	7.30 to 8.00	7.30 to 8.00	COc1cc2c(cc1Nc1ncc(Br)c(Nc3ccc4nccnc4c3NS(C)(=O)=O)n1)-c1cnn(C)c1CCN2C(C)(C)CF [Compound 120]	–	–	–
–	> 9.00	> 9.00	–	–	7.00 to 7.30	> 8.00	> 8.00	COc1cc2c(cc1Nc1ncc(C)c(Nc3ccc4nccnc4c3P(C)(C)=O)n1)-c1cnn(C)c1CCN2C [Compound 5]	–	–	–
–	8.00 to 9.00	7.30 to 8.00	–	–	6.00 to 7.00	7.30 to 8.00	7.30 to 8.00	COc1cc2c(cc1Nc1ncc(Br)c(Nc3ccc4nccnc4c3N3CCCS3(=O)=O)n1)-c1cnn(C)c1CCN2C(C)C [Compound 118]	–	–	–
–	> 9.00	8.00 to 9.00	–	–	6.00 to 7.00	> 8.00	7.30 to 8.00	COc1cc2c(cc1Nc1ncc(Cl)c(Nc3ccccc3P(C)(C)=O)n1)-c1cnn(C)c1CCN2C(C)C [Compound 45]	–	–	–
